Measurements published in article PMC8179433, “Rational designing of glyco-nanovehicles to target cellular heterogeneity” (Chemical Science, 2021).
Like-named read-outs stand apart in the source and are kept apart here.

Key:
HB-EGF [1] = target: T1, HB-EGF (Homo sapiens, UniProt Q99075); assay: SPR; also competition ELISA against immobilized heparin (IC50 =[…]); type: binding
T1 construct: gene HBEGF

HB-EGF [2] = target: T1, HB-EGF; assay: as above; type: binding; remark: listed apart in the source

T1 sequence (Q99075 63-148): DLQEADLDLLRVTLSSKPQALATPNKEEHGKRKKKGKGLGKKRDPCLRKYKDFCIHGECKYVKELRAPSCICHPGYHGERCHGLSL

Structure (SMILES)	Kd (HB-EGF [1]) [µM]	Kd (HB-EGF [2]) [µM]
CC(=O)N[C@H]1[C@@H](O[C@H]2[C@H](O)[C@@H](O)[C@H](OCCCN)O[C@H]2C(=O)O)O[C@H](COP(=O)(O)O)[C@@H](O[C@@H]2O[C@@H](C(=O)O)[C@@H](O[C@H]3O[C@H](COP(=O)(O)O)[C@@H](O)[C@H](O)[C@H]3NC(C)=O)[C@H](O)[C@H]2O)[C@@H]1O [compound 8, 6-O-phosphated HS tetrasaccharide (8)]	11.1	–
CC(=O)N[C@H]1[C@@H](O[C@H]2[C@H](O)[C@@H](O)[C@H](OCCCN)O[C@H]2C(=O)O)O[C@H](COS(=O)(=O)O)[C@@H](O[C@@H]2O[C@@H](C(=O)O)[C@@H](O[C@H]3O[C@H](COS(=O)(=O)O)[C@@H](O)[C@H](O)[C@H]3NC(C)=O)[C@H](O)[C@H]2O)[C@@H]1O [compound 7, 6-O-S HS tetrasaccharide (7)]	–	11.1
